Measured values as given in patent US20250268827A1, “COMBINED MEDICINAL DRUG INCLUDING LIPOSOME COMPOSITION ENCOMPASSING TOPOTECAN OR SALT THEREOF AND DNA DAMAGE REPAIR INHIBITOR” (FUJIFILM Corporation, priority 2022, published 2025).
Where two headings read alike, the source gives them in different places.

Assays:
[1] = tested on: ES-2 (ovarian cancer cell line); assay: In vitro cell proliferation inhibition test with isobologram analysis (Test Example 3), ES-2; assay type: cell-based; settings: DNA damage repair inhibitor combined with Lipo, 3 days culture
Procedure: (§1) A Cell Counting Kit-8 (Dojindo Molecular Technologies. Inc.) was used for a living cell detection method, and the absorbance at 460 nm after 4 hours of reagent addition was measured with a microplate reader to obtain the IC50 value. [table] As various DNA damage repair inhibitors to be used in combination with the liposome composition, the following DNA damage repair inhibitors were used; ceralasertib ([…] Biotechnology, Inc.) as an ATR inhibitor, prexasertib ([…] Biotechnology, Inc.) as a CHK1/2 inhibitor, […] Biotechnology, Inc.) as a DNA-PK inhibitor, […] Biotechnology, Inc.) as an ATM inhibitor, ZN-c3 ([…] Biotechnology, Inc.) as a WEE1 inhibitor, and olaparib ([…] Biotechnology, Inc.) as a PARP inhibitor. […] [table] […] First, the IC50 value of Lipo alone and the IC50 value of various DNA damage repair inhibitors alone were determined. Next, various DNA damage repair inhibitors were used in combination at each of the set concentration points of Lipo, and the IC50 value of the DNA damage repair inhibitors was determined. A value obtained by […] was denoted as “Lipo FIC”, and a value obtained by dividing this value by the IC50 value of the various DNA damage repair inhibitors was denoted as “various DNA damage repair inhibitor FIC”, and then these two values were recorded as one set of values. […] In addition, Lipo was used in combination at each of the concentration points of the various DNA damage repair inhibitors which were set in the same manner, and the IC50 value of the Lipo was determined. A value obtained by dividing this value by the IC50 value of Lipo alone was denoted as “Lipo FIC”, and a value obtained by dividing this value by the IC50 value of the various DNA damage repair inhibitors was denoted as “various DNA damage repair inhibitor FIC”, and then these two values were recorded as one set of values. […] As shown in Table 8 and Table 9, an isobologram was obtained by plotting each set of these values on the graph of various DNA damage repair inhibitors FIC v.s. Lipo FIC. […] A case of being plotted to the right indicates an “antagonistic effect”, which is regarded as an inappropriate effect of combined use. FIG. 5 to FIG. 21 show the results.

[2] = tested on: DMS114 (lung cancer cell line); assay: In vitro cell proliferation inhibition test with isobologram analysis (Test Example 3), DMS 114; assay type: cell-based; settings: DNA damage repair inhibitor combined with Lipo, 5 days culture
Procedure: as §1

[3] = tested on: Capan-1 (pancreatic cancer cell line); assay: In vitro cell proliferation inhibition test with isobologram analysis (Test Example 3), Capan-1; assay type: cell-based, human; settings: for effect of combined use with Lipo in isobologram analysis / DNA damage repair inhibitor (Ceralasertib) FIC: Capan-1; for effect of combined use with Lipo in isobologram analysis: DNA damage repair inhibitor combined with Lipo, 6 days culture; for IC50: Homo sapiens, CAPAN-1, Capan-1, read-out: IC50 value (nmol/L) of DNA damage repair inhibitor (Ceralasertib) at each of concentration points of Lipo
Procedure: as §1

[4] = tested on: Capan-1 cells (human pancreatic cancer cell line) subcutaneous tumor; assay: Drug efficacy in pancreatic cancer cell line (Capan-1) model, combined use of Lipo and olaparib (Test Example 1); assay type: in vivo, mouse Balb/cAJcl-nu/nu; settings: same dosing as Table 1; relative to no-drug group; day 28

SMILES: COc1cc2ncc3c(c2cc1-c1cn(C)nc1C)n(-c1c(F)cncc1OC)c(=O)n3C [Example M4076]
- effect of combined use with Lipo in isobologram analysis [1]: synergistic effect
- effect of combined use with Lipo in isobologram analysis [2]: synergistic effect
- effect of combined use with Lipo in isobologram analysis [3]: additive effect

SMILES: O=C(c1cc(Cc2n[nH]c(=O)c3ccccc23)ccc1F)N1CCN(C(=O)C2CC2)CC1 [Olaparib]
- effect of combined use with Lipo in isobologram analysis [1]: synergistic effect
- Drug efficacy (tumor diameter) 28 days after administration, proportion to Comparative Example 1 [4]: (80%)
- effect of combined use with Lipo in isobologram analysis [2]: synergistic effect
- Safety (body weight: g) 28 days after administration (Capan-1 tumor-bearing female nude mice, Lipo 0.5 mg/kg or topotecan 5 mg/kg i.v. weekly x 4, olaparib 50 mg/kg i.p. daily x 6 days/week x 4 weeks, day 28): 103 g
- Safety (body weight) 28 days after administration, proportion to Comparative Example 1 (same dosing as Table 1, relative to no-drug group, day 28): (97%)
- effect of combined use with Lipo in isobologram analysis [3]: synergistic effect

SMILES: CC[C@@]1(O)C(=O)OCc2c1cc1n(c2=O)Cc2cc3c(CN(C)C)c(O)ccc3nc2-1 [Topotecan]
- Drug efficacy (tumor diameter) 28 days after administration, proportion to Comparative Example 1 [4]: (80%)
- Safety (body weight) 28 days after administration, proportion to Comparative Example 1 (mouse, in vivo): (96%)

SMILES: COc1ccc([C@@H](O)c2cc(-c3ncnc4cc(N5CCOCC5)ccc34)c(F)cc2Cl)nn1 [Example M3814]
- effect of combined use with Lipo in isobologram analysis [1]: additive effect
- effect of combined use with Lipo in isobologram analysis [2]: synergistic effect
- effect of combined use with Lipo in isobologram analysis [3]: synergistic effect

SMILES: C[C@@H]1COCCN1c1cc(C2([S@](C)(=N)=O)CC2)nc(-c2cc[nH]c3nccc2-3)n1 [Ceralasertib]
- effect of combined use with Lipo in isobologram analysis [1]: synergistic effect
- effect of combined use with Lipo in isobologram analysis [2]: synergistic effect
- effect of combined use with Lipo in isobologram analysis [3]: synergistic effect
- DNA damage repair inhibitor (Ceralasertib) FIC ([3]; Table 8, Lipo 0.0 nmol/L): 1.0
- DNA damage repair inhibitor (Ceralasertib) FIC ([3]; Table 8, Lipo 0.14 nmol/L): 0.7
- DNA damage repair inhibitor (Ceralasertib) FIC ([3]; Table 8, Lipo 0.41 nmol/L): 0.9
- DNA damage repair inhibitor (Ceralasertib) FIC ([3]; Table 8, Lipo 1.23 nmol/L): 0.9
- DNA damage repair inhibitor (Ceralasertib) FIC ([3]; Table 8, Lipo 3.7 nmol/L): 0.2
- DNA damage repair inhibitor (Ceralasertib) FIC ([3]; Table 8, Lipo 11.1 nmol/L): 0.02
- DNA damage repair inhibitor (Ceralasertib) FIC ([3]; Table 9, ceralasertib 0.0 nmol/L): 0.0
- DNA damage repair inhibitor (Ceralasertib) FIC ([3]; Table 9, ceralasertib 4.57 nmol/L with Lipo): 0.01
- DNA damage repair inhibitor (Ceralasertib) FIC ([3]; Table 9, ceralasertib 13.7 nmol/L with Lipo): 0.02
- DNA damage repair inhibitor (Ceralasertib) FIC ([3]; Table 9, ceralasertib 41.2 nmol/L with Lipo): 0.05
- DNA damage repair inhibitor (Ceralasertib) FIC ([3]; Table 9, ceralasertib 123 nmol/L with Lipo): 0.1
- DNA damage repair inhibitor (Ceralasertib) FIC ([3]; Table 9, ceralasertib 370 nmol/L with Lipo): 0.4
- IC50 ([3]; Lipo 0.0 nmol/L (ceralasertib alone)): 893 nmol/L
- IC50 ([3]; combined with Lipo 0.14 nmol/L): 634 nmol/L
- IC50 ([3]; combined with Lipo 0.41 nmol/L): 809 nmol/L
- IC50 ([3]; combined with Lipo 1.23 nmol/L): 798 nmol/L
- IC50 ([3]; combined with Lipo 3.7 nmol/L): 181 nmol/L
- IC50 ([3]; combined with Lipo 11.1 nmol/L): 14.9 nmol/L

SMILES: C=CCn1c(=O)c2cnc(Nc3ccc(N4CCN(C)CC4)cc3)nc2n1-c1ccc2c(n1)[C@@](O)(CC)CC2 [ZN-c3]
- effect of combined use with Lipo in isobologram analysis [1]: synergistic effect
- effect of combined use with Lipo in isobologram analysis [2]: additive effect
- effect of combined use with Lipo in isobologram analysis [3]: additive effect

SMILES: COc1cccc(OCCCN)c1-c1cc(Nc2cnc(C#N)cn2)n[nH]1 [prexasertib]
- effect of combined use with Lipo in isobologram analysis [1]: synergistic effect
- effect of combined use with Lipo in isobologram analysis [2]: synergistic effect
